Reference: patent US20230414715A1, “TRAIL COMPOUNDS FOR REDUCING CANCER TREAMENT SIDE EFFECTS” (BROWN UNIVERSITY, priority 2022, published 2023)

Tests used:
duodenum, liver or heart = test: H&E of duodenum, liver and heart of irradiated, treated mice; details: 20 Gy irradiated mice, 2 weeks treatment
Protocol: (§1) Animal studies were carried out at Brown University facilities with approval from Brown University IACUC. C57B1/6 mice (Taconic), mice with bi-allelic loss of TRAIL Death Receptor-(DR5-/-) in a C57B1/6 background, and mice with bi-allelic loss of TRAIL (TRAIL -/-) in a C57B1/6 background were given a single whole-thorax x-ray (Philips RT250) irradiation dose of 20 Gy with shielding of other organs. 8-15-week-old male and female mice of each genotype were used. […] Treatment was continued for two weeks, where TLY012 was administered twice a week and ONC201 was administered once a week. For each genetic background, two mice received a control PO, two mice received TLY012 IP, and two mice received ONC201 PO. Mice were weighed twice a week, and 13 days post-irradiation all mice were euthanized. Organs were harvested from the mice and 600 μL of blood was collected via cardiac puncture for serum cytokine analysis. Organs were preserved in 10% formalin then embedded in paraffin and sectioned at a distance of 5 μm. […] TRAIL-/- female mice were also subjected to a survival study with a single whole-thorax radiation doses of 15 Gy or 18 Gy treated with the same regimen of TLY012 or control (n=2/radiation dose/treatment) (FIG. 3B). […]

TRAIL-/- mice = test: Radiation pneumonitis after whole-thorax x-ray irradiation, H&E of lung, TRAIL-null mice; type: in vivo, mouse; details: TRAIL-/- male or female mice, 20 Gy thoracic irradiation, two weeks treatment, FIG. 2A, B
Protocol: as §1

[1] = tested on: e0771 orthotopic breast tumors in C57B1/6 mice; test: Orthotopic e0771 breast tumor model with 20 Gy whole-thorax irradiation
Protocol: C57B1/6 female mice (Taconic) were injected with 100,000 cells of murine breast cancer (e0771) in the right second mammary fat pad on day 0 of the experiment. […] Each group (n=3) also received a single whole-thorax x-ray irradiation dose of 20 Gy with shielding of other organs. One group (n=3) received no treatment and no radiation. The long axis and short axis of the tumors were measured using calipers and recorded twice a week. On day 18 all mice were euthanized at a humane endpoint, which was defined by 20% weight loss and/or a tumor volume of 2000 mm^3 (˜10% of body weight). Organs and tumors were harvested from the mice and 600 μL of blood was collected via cardiac puncture for serum cytokine analysis. Once tumors were extracted, they were weighed and measured to determine final volume and weight. Pulse oximeter readings were taken initially before radiation treatment and before sacrifice 9 days post-radiation (MouseSTAT Jr. Pulse Oximeter, Kent Scientific). When mice were under anesthesia the sensor of the MouseSTAT Jr. was placed on the hind right paw for 30 seconds. The highest and lowest values shown by the pulse oximeter during this time were recorded and then averaged together. The mean of all the averages per treatment group was then calculated.

serum cytokines = test: Serum cytokine analysis (Luminex) of irradiated mice; type: in vivo, mouse; details: treated versus control
Protocol: (§2) Animal studies were carried out at Brown University facilities with approval from Brown University IACUC. C57B1/6 mice (Taconic), mice with bi-allelic loss of TRAIL Death Receptor-(DR5-/-) in a C57B1/6 background, and mice with bi-allelic loss of TRAIL (TRAIL -/-) in a C57B1/6 background were given a single whole-thorax x-ray (Philips RT250) irradiation dose of 20 Gy with shielding of other organs. 8-15-week-old male and female mice of each genotype were used. […] Treatment was continued for two weeks, where TLY012 was administered twice a week and ONC201 was administered once a week. For each genetic background, two mice received a control PO, two mice received TLY012 IP, and two mice received ONC201 PO. Mice were weighed twice a week, and 13 days post-irradiation all mice were euthanized. Organs were harvested from the mice and 600 μL of blood was collected via cardiac puncture for serum cytokine analysis. Organs were preserved in 10% formalin then embedded in paraffin and sectioned at a distance of 5 μm. […] TRAIL-/- female mice were also subjected to a survival study with a single whole-thorax radiation doses of 15 Gy or 18 Gy treated with the same regimen of TLY012 or control (n=2/radiation dose/treatment) (FIG. 3B). In order to determine the lethal dose of radiation for C57B1/6 mice, female C57B1/6 mice were treated with a single dose of whole-thorax irradiation of 25 Gy in a survival study where they were treated with either TLY012 or remained control (n=6/treatment) (FIG. 3C).
All mouse serum samples were analyzed by a custom R&D systems Murine Premixed Multi- Analyte Kit (R&D Systems, Inc., Minneapolis, MN). The panel was run on a Luminex 200 Instrument (Luminex Corporation, Austin, TX) according to the manufacturer's instructions. Murine serum levels of Angiopoietin-2, BAFF/BLyS/TNFSF13B, CCL2/JE/MCP-1, CCL3/MIP-1 alpha, CCL4/MIP-1 beta, CCL5/RANTES, CCL7/MCP-3/MARC, CCL11/Eotaxin, CCL12/MCP-5, CCL20/MIP-3 alpha, CCL21/6Ckine, CCL22/MDC, Chitinase 3-like 1, CXCL1/GRO alpha/KC/CINC-1, CXCL10/IP-10/CRG-2, CXCL12/S DF- 1 alpha, Dkk-1, FGF basic/FGF2/bFGF, GDF-15, GM-CSF, Granzyme B, IFN-gamma, IGF-I/IGF-1, IL-1 alpha/IL-1F1, IL-1 beta/IL-1F2, IL-2, IL-3, IL-4, IL-6, IL-7, IL-10, IL-13, IL-16, IL-17/IL-17A, IL-27, IL-33 M-CSF, MMP-3, MMP-8, MMP-12, Prolactin, TWEAK/TNFSF12, VEGF, and VEGFR2/KDR/Flk-1 were measured. Analyte values were reported in picograms per milliliter (pg/mL). […] Latent TGF-β was activated in samples using 1 N HCl and samples were neutralized with 1.2 N NaOH/0.5 M HEPES. Samples were assayed immediately after neutralization.

[2] = tested on: lung tissue in irradiated C57B1/6 mice; test: Immunohistochemistry of irradiated lung tissue; type: in vivo, mouse
Source text: Paraffin embedded sections of tissue were deparaffinized in xylene and rehydrated through graded ethanol solutions to phosphate-buffered saline (PBS). Heat-induced antigen retrieval (in 0.01 M citrate buffer; pH 6.0), endogenous peroxidase blocking (3% H202), and blocking were done using a standard protocol. […] Slides were developed with diaminobenzidine substrate (Vector Laboratories SK-4100) and counterstained with hematoxylin (Richard Allen Scientific). Slides were scanned (Olympus VS200) and representative brightfield images were taken and analyzed with OlyVIA software.

C57B1/6 mice = test: Radiation pneumonitis after whole-thorax x-ray irradiation, H&E of lung, wild-type mice; type: in vivo, mouse
Protocol: However, before embarking on the planned experiment, we decided to perform a preliminary, short-term treatment feasibility experiment to ensure some mouse survival after 20 Gy of thoracic irradiation (FIG. 1B). The preliminary experiment was performed with WT and DR5-null mice that were irradiated with 20 Gy, and this was followed by either weekly doses of TIC10/ONC201 (100 mg/kg for total of two doses) or twice a week doses of TLY012 (10 mg/kg for total of four doses) for 2 weeks.
as §2

[3] = irradiated rescued versus irradiated control lung tissues
[4] = normal or inflamed lung, treated versus irradiated control

## Cc1ccccc1CN1C(=O)C2=C(CCN(Cc3ccccc3)C2)N2CCN=C12 [ONC201, reference compound]
duodenum, liver or heart
  toxicities in duodenum, liver or heart: No obvious toxicities
TRAIL-/- mice
  rescue from radiation pneumonitis: did not
[1]; 20 Gy on day 9, treatment days 9, 12, 16, sacrifice day 18, FIG. 6B, C
  effect on anti-tumor efficacy of radiation (tumor weight and volume): no evidence that ONC201, TLY012 or their combination reduced efficacy of treatment
[1]; 9 days post-radiation, versus irradiated mice without further treatment, FIG. 6D
  oxygen saturation (pulse oximetry): partially rescued
[1]; tumor-bearing mice, 20 Gy
  rescue from radiation induced pneumonitis: more potent by TLY012 than with ONC201
Serum cytokines
  FGF basic serum level: increase
  IGF1 serum level: upregulated
[2]; [3]
  NFkB: no differences
  proliferation: no differences
[2]; [4]
  DNA double strand break marker gamma-H2AX: no difference
  T-cell infiltration (CD3-epsilon): no difference
[2]; rescued lungs versus irradiated control
  collagen in lungs: less collagen
C57B1/6 mice; WT mice, 20 Gy thoracic irradiation, preliminary experiment, 2 weeks treatment, versus irradiated control, FIG. 1C
  protection from pneumonitis: qualitative evidence of protection from pneumonitis
C57B1/6 mice; irradiated C57B1/6 mice, FIG. 2
  rescue from radiation-induced pneumonitis: could rescue mice from radiation-induced pneumonitis
